In US7323186B2 (priority 2001, dated 2008):

Tests used:
[1] = system: TSST-1 production by S. aureus FRI-1169; format: cell-based, Staphylococcus aureus
[2] = system: TSST-1 production by S. aureus FRI-1187; format: cell-based, Staphylococcus aureus

## Oc1cc(Cl)ccc1Oc1ccc(Cl)cc1Cl [Triclosan, triclosan]
[1]
  TSST-1 production compared to the control: produced less TSST-1
[2]
  TSST-1 production compared to the control: produced less TSST-1
